From PubChem BioAssay AID485280 (The Scripps Research Institute Molecular Screening Center, 2010)
The source made the active and inactive calls.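 The calls were made as follows: active = CC50 of 24 µM or less, the dose killing half of Huh-7.5 liver cells, showing toxicity to them; inactive = no cytotoxicity, CC50 exceeds 24 µM.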

System: Huh-7.5 viability, XTT absorbance
Assay: cytotoxicity in Huh-7.5 cells, late-stage follow-up, cytotoxicity control for HCV core dimerization inhibitor project, cell-based, absorbance (AID 485280)

## Cc1ccc(Cc2c(C)nc3nc(SCC(=O)NCCCN4CCCCCC4)nn3c2C)cc1
  CC50: 27.4 µM (inactive)

## COCCN(C(=O)COC(=O)c1cc2c(s1)CCC2)c1c(N)n(Cc2ccccc2)c(=O)[nH]c1=O
  CC50: 141 µM (inactive)

## Cc1ccccc1N1C(=O)/C(=C/c2ccco2)C(=O)NC1=S
  CC50: 143 µM (inactive)

## COc1ccc(NC(=O)CN(C)C(=O)c2cc3c(s2)CCC3)cc1
  CC50: 123 µM (inactive)

## CCN(CC(=O)Nc1c(F)cccc1F)C(=O)/C=C/c1ccc2ccccc2n1
  CC50: 148 µM (inactive)

## O=C(/C=C/c1ccc(Br)o1)OCc1nc2ccsc2c(=O)[nH]1
  CC50: 163 µM (inactive)

## CCCCCC#CCC#CCC#CCC#CCCCC(=O)O
  CC50: 179 µM (inactive)
